Results on two compounds are retold here after the NIST ThermoML archive (doi:10.1016/j.jct.2011.05.022).

± gives the expanded uncertainty stated by the source.

The nature of this data set: molar heat capacity at constant pressure. The following applies: 101.33 kPa, Liquid, Small sample (50 mg) DSC.

Consider `CCCC[N+]1(C)CCCC1.N#C[B-](C#N)(C#N)C#N` [1-butyl-1-methylpyrrolidinium tetracyanoborate], for which the “molar heat capacity at constant pressure” value is, setting by setting: (298.2 K) 524 ± 53 J/K/mol; (323.2 K) 554 ± 56 J/K/mol.
Consider `CCCC[n+]1cccc(C)c1.N#C[B-](C#N)(C#N)C#N` [1-butyl-3-methylpyridinium tetracyanoborate], for which the “molar heat capacity at constant pressure” value by setting is: (298.2 K) 495 ± 50 J/K/mol; (323.2 K) 524 ± 53 J/K/mol.
